Laboratory results reported in patent US8143212B2 (Vicuron Pharmaceuticals Inc., priority 2002, dated 2012).
Values after ≈ are worked out from the molar mass of the structure shown. Where two headings read alike, the source gives them in different places.

Columns and labels:
[1] = test system: P aeruginosas; experiment: MIC, microbiological activity (Table 3); assay type: cell-based; settings: L 4 P aeruginosas ATCC10145; read-out: MIC
[2] = test system: S haemolyticus; experiment: MIC, microbiological activity (Table 3); assay type: cell-based; settings: L 602 S haemolyticus clin. isolate; read-out: MIC
[3] = test system: E faecalis; experiment: MIC, microbiological activity (Table 3); assay type: cell-based; settings: read-out: MIC
[4] = test system: hepatic cytochrome P450 isoenzymes
[5] = test system: bacteria; experiment: Minimum bactericidal concentration; assay type: cell-based; settings: in plasma
From the text: The amount of dalbavancin administered may be any of the dosages disclosed herein.

[6] = test system: S. pneumoniae; experiment: MIC by NCCLS microdilution of study organisms (Table 29); assay type: cell-based; settings: Streptococcus pneumoniae
Protocol: (§1) MICs were determined in MHB by standard NCCLS microdilution techniques. […] All MICs were performed at least in duplicate.

[7] = test system: S. aureus; experiment: as above; assay type: cell-based
Protocol: as §1

[8] = test system: S. aureus; experiment: Murine thigh-infection model (time kill, dosing regimen, PK/PD; Tables 31, 32);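 also: mouse thigh infection, bacterial counts per thigh after therapy, dose-response curves fitted with a maximum effect model to give static and 1 or 2 log kill exposures, mean of 4 thighs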
Protocol: The murine thigh-infection model was used for all organisms throughout the various studies. In this well-established model, approximately 10^6 Cfu of the study organisms are injected into one or both thighs (in 0.1 ml) two hours before starting therapy. The number of organisms in the thigh at the start of therapy in the following studies varied from 10^7.15-7.59 cfu/thigh.
Each point represents the mean of 4 thighs. Five dose levels, ranging 16-fold were used. The dose levels used in the study against S. aureus ranged from 5 to 80 mg/kg.
In these studies, multiple dosing regimens varying the dose and dosage interval were administered intraperitoneally in 0.2 ml volumes to groups of mice for 144 h (6 days). The dosing intervals chosen were 12, 24, 36, and 72 hours. Five different doses (two-fold increases) were used. Study against S. aureus utilized total dose (mg/kg/6d) levels ranging from 30 to 480 mg/kg/6d. […] Each point represents the mean of 4 thighs.
Each of the dose-response curves was also mathematically characterized using a maximum effect model. […] From these parameters we could then calculate the dose required to produce a net bacteriostatic effect over the 144 hour treatment period as well as the doses necessary to produce a 1 and 2 log-reduction in organism burden.
We determined which PK/PD parameter correlated best with efficacy by relating the number of bacteria in thigh at the end of 144 hours of therapy with [1] the peak/MIC ratio, [2] the AUC/MIC ratio, and [3] the percentage of the dosing interval that serum levels exceed the MIC for each of the dosage regimens studied. The PK/PD parameter values for those doses not specifically studied were extrapolated from the values of the nearest studied doses. […] Each point represents the mean of four thighs. […] The data illustrated in these figures were also analyzed by the same maximum dose-response model mentioned above, except that the different PK/PD parameters were used in place of the dose. The R^2 represents the coefficient of determination observed for the relationship between efficacy and each PK/PD parameter.

[9] = Staphylococcus aureus, MRSA, S. aureus strain MRSA
[10] = Staphylococcus aureus, S. aureus strain Smith
[11] = Mean ± SD of S. aureus strains, q 24 h regimen
[12] = Mean ± SD of S. aureus strains, q 72 h regimen

With CN[C@H]1C(=O)N[C@@H]2Cc3ccc(cc3)Oc3cc4cc(c3O[C@@H]3O[C@H](C(=O)O)[C@@H](O)[C@H](O)[C@H]3NC(=O)CCCCCCCCC(C)C)Oc3ccc(cc3Cl)[C@@H](O)[C@@H]3NC(=O)[C@H](NC(=O)[C@@H]4NC(=O)[C@@H](NC2=O)c2cc(cc(O)c2Cl)Oc2cc1ccc2O)c1ccc(O)c(c1)-c1c(O[C@H]2O[C@H](CO)[C@@H](O)[C@H](O)[C@@H]2O)cc(O)cc1[C@@H](C(=O)NCCCN(C)C)NC3=O [Dalbavancin] the MIC [1] was greater than 32 µg/mL, the MIC [2] was greater than 32 µg/mL and the MIC ([3]; L 149 E faecalis) was 0.06 µg/mL (≈ 0.033 µM). For the same compound, the MIC ([3]; L 562 E faecalis clin. isolate) was greater than 32 µg/mL, the metabolism in vitro [4] was “not metabolized” and the “substrate, inhibitor, or inducer of hepatic cytochrome P450 isoenzymes” value [4] was “not a substrate, inhibitor, or inducer”. For the same compound, the MBC [5] was roughly 4 µg/mL (≈ 2.2 µM), the MIC ([6]; S. pneumoniae SP1396) was 0.008 µg/mL (≈ 0.0044 µM) and the MIC ([6]; S. pneumoniae strain 1199, read-out: MIC) was 0.004 µg/mL (≈ 0.0022 µM). It also gave an MIC ([6]; S. pneumoniae strain 1293, read-out: MIC) of 0.004 µg/mL (≈ 0.0022 µM), an MIC ([6]; S. pneumoniae strain 1325, read-out: MIC) of 0.008 µg/mL (≈ 0.0044 µM) and an MIC ([6]; S. pneumoniae strain 1329, read-out: MIC) of 0.008 µg/mL (≈ 0.0044 µM). It also gave an MIC ([6]; S. pneumoniae strain 10813, read-out: MIC) of 0.03 µg/mL (≈ 0.0165 µM), an MIC ([6]; five pneumococcal organisms, read-out: MICs) of 0.004 to 0.03 µg/mL (≈ 0.0022 to 0.0165 µM) and an MBC ([7]; S. aureus strain 25923) of 0.25 µg/mL (≈ 0.138 µM). The MIC ([7]; S. aureus strain MRSA) was 0.06 µg/mL (≈ 0.033 µM), the MBC ([7]; S. aureus strain Smith) was 0.25 µg/mL (≈ 0.138 µM) and the MIC ([7]; S. aureus strain Smith) was 0.12 µg/mL (≈ 0.0661 µM). It also gave an MBC [7, 9] of 0.25 µg/mL (≈ 0.138 µM), an MIC [7, 9] of 0.12 µg/mL (≈ 0.0661 µM) and an MBC ([7]; Staphylococcus aureus, S. aureus strain 25923) of 0.5 µg/mL (≈ 0.275 µM). It also gave an MIC ([7]; Staphylococcus aureus, S. aureus strain 31005) of 0.06 µg/mL (≈ 0.033 µM), an MBC ([7]; Staphylococcus aureus, S. aureus strain 33591) of 0.25 µg/mL (≈ 0.138 µM) and an MIC ([7]; Staphylococcus aureus, S. aureus strain 307109) of 0.06 µg/mL (≈ 0.033 µM). The MBC [7, 10] was 0.5 µg/mL (≈ 0.275 µM), the MIC [7, 10] was 0.06 µg/mL (≈ 0.033 µM) and the MIC ([7]; Staphylococcus aureus, read-out: MICs, six S. aureus isolates) was 0.06 to 0.12 µg/mL (≈ 0.033 to 0.0661 µM). For the same compound, the “1 Log Kill f24AUC/MBC” value ([8]; MRSA, q 24 h regimen) was 109, the “1 Log Kill f24AUC/MIC” value ([8]; MRSA, q 24 h regimen) was 452 and the “1 Log Kill mg/kg/24 h” value ([8]; MRSA, q 24 h regimen) was 45.3 mg/kg/24 h. The “2 Log Kill f24AUC/MBC” value ([8]; MRSA, q 24 h regimen) was 125, the “2 Log Kill f24AUC/MIC” value ([8]; MRSA, q 24 h regimen) was 519 and the “2 Log Kill mg/kg/24 h” value ([8]; MRSA, q 24 h regimen) was 53.5 mg/kg/24 h. The “Static Effect f24AUC/MBC” value ([8]; MRSA, q 24 h regimen) was 90, the “Static Effect f24AUC/MIC” value ([8]; MRSA, q 24 h regimen) was 374 and the “Static Effect mg/kg/24 h” value ([8]; MRSA, q 24 h regimen) was 37.7 mg/kg/24 h. The “1 Log Kill f24AUC/MBC” value ([8]; MRSA, q 72 h regimen) was 48.8, the “1 Log Kill f24AUC/MIC” value ([8]; MRSA, q 72 h regimen) was 202 and the “1 Log Kill mg/kg/24 h” value ([8]; MRSA, q 72 h regimen) was 62 mg/kg/24 h. The “2 Log Kill f24AUC/MBC” value ([8]; MRSA, q 72 h regimen) was 70, the “2 Log Kill f24AUC/MIC” value ([8]; MRSA, q 72 h regimen) was 292 and the “2 Log Kill mg/kg/24 h” value ([8]; MRSA, q 72 h regimen) was 85 mg/kg/24 h. The “Static Effect f24AUC/MBC” value ([8]; MRSA, q 72 h regimen) was 35.3, the “Static Effect f24AUC/MIC” value ([8]; MRSA, q 72 h regimen) was 147 and the “Static Effect mg/kg/72 h” value ([8]; MRSA, q 72 h regimen) was 43 mg/kg/72 h. For the same compound, the “1 Log Kill f24AUC/MBC” value [8, 11] was 86.6 ± 27.6, the “1 Log Kill f24AUC/MIC” value [8, 11] was 268 ± 119 and the “1 Log Kill mg/kg/24 h” value [8, 11] was 43.7 ± 9.5 mg/kg/24 h. The “2 Log Kill f24AUC/MBC” value [8, 11] was 110 ± 42, the “2 Log Kill f24AUC/MIC” value [8, 11] was 332 ± 131 and the “2 Log Kill mg/kg/24 h” value [8, 11] was 55 ± 14 mg/kg/24 h. The “Static Effect f24AUC/MBC” value [8, 11] was 101 ± 72, the “Static Effect f24AUC/MIC” value [8, 11] was 265 ± 143 and the “Static Effect mg/kg/24 h” value [8, 11] was 37.1 ± 9.1 mg/kg/24 h. The “1 Log Kill f24AUC/MBC” value [8, 12] was 75.9 ± 45.2, the “1 Log Kill f24AUC/MIC” value [8, 12] was 213 ± 8.14 and the “1 Log Kill mg/kg/24 h” value [8, 12] was 94 ± 46 mg/kg/24 h. For the same compound, the “2 Log Kill f24AUC/MBC” value [8, 12] was 101 ± 61, the “2 Log Kill f24AUC/MIC” value [8, 12] was 266 ± 88 and the “2 Log Kill mg/kg/24 h” value [8, 12] was 120 ± 54 mg/kg/24 h. The “Static Effect f24AUC/MBC” value [8, 12] was 55 ± 31, the “Static Effect f24AUC/MIC” value [8, 12] was 160 ± 67 and the “Static Effect mg/kg/72 h” value [8, 12] was 72 ± 41 mg/kg/72 h. The “1 Log Kill f24AUC/MBC” value ([8]; SA25923, q 24 h regimen) was 60, the “1 Log Kill f24AUC/MIC” value ([8]; SA25923, q 24 h regimen) was 250 and the “1 Log Kill mg/kg/24 h” value ([8]; SA25923, q 24 h regimen) was 51.2 mg/kg/24 h. For the same compound, the “2 Log Kill f24AUC/MBC” value ([8]; SA25923, q 24 h regimen) was 69.3, the “2 Log Kill f24AUC/MIC” value ([8]; SA25923, q 24 h regimen) was 289 and the “2 Log Kill mg/kg/24 h” value ([8]; SA25923, q 24 h regimen) was 60 mg/kg/24 h. For the same compound, the “Static Effect f24AUC/MBC” value ([8]; SA25923, q 24 h regimen) was 52, the “Static Effect f24AUC/MIC” value ([8]; SA25923, q 24 h regimen) was 216 and the “Static Effect mg/kg/24 h” value ([8]; SA25923, q 24 h regimen) was 42.7 mg/kg/24 h. For the same compound, the “1 Log Kill f24AUC/MBC” value ([8]; SA25923, q 72 h regimen) was 76.1 and the “1 Log Kill f24AUC/MIC” value ([8]; SA25923, q 72 h regimen) was 317.
